Measured values taken from patent EP4722213A1, “NITROGEN-CONTAINING FUNCTIONAL GROUP-SUBSTITUTED PYRIDAZINOPYRIDONE DERIVATIVE AND USE THEREOF” (Sichuan Huiyu Pharmaceutical Co., Ltd., priority 2023, dated 2024).
Structures can show the parent of a compound that is named as a salt.

target: T1, SOS1 (Homo sapiens, UniProt Q07889); assay: biochemical
T1 sequence (Q07889 1-1333): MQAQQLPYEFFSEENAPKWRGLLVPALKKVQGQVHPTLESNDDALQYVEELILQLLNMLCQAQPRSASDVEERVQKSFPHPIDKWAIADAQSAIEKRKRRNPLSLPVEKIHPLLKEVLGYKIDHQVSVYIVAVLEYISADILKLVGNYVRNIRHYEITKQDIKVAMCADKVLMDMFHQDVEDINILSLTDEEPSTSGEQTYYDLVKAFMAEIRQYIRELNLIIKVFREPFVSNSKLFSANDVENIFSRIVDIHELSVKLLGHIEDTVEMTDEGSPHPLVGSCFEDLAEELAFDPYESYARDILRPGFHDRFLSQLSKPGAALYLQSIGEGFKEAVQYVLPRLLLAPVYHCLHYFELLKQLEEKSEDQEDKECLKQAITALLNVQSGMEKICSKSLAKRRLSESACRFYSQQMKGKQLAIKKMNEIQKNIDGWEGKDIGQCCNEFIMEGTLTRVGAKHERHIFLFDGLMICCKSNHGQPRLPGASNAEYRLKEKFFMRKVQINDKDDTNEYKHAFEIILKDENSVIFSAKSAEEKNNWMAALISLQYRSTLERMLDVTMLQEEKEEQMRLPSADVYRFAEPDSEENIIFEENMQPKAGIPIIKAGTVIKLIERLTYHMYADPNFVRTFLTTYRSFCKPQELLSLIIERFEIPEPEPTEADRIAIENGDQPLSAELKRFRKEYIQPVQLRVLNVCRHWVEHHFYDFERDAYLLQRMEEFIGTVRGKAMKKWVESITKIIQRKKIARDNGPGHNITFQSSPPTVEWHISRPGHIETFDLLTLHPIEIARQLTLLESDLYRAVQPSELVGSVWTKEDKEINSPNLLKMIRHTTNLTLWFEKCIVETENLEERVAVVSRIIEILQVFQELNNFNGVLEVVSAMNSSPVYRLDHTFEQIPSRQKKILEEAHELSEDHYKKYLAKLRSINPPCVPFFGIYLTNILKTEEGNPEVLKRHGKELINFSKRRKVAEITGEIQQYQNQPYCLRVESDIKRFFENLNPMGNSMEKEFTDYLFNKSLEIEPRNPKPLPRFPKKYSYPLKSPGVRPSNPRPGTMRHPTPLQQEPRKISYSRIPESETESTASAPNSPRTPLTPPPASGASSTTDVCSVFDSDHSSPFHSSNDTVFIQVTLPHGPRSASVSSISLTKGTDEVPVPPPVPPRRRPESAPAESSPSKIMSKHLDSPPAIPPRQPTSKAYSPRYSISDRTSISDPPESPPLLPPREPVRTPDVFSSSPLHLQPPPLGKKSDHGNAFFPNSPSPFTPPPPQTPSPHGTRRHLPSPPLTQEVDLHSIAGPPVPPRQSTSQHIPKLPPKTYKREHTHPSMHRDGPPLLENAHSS

SMILES	IC50 [nM]
Cc1c(C(F)F)cccc1[C@@H](C)Nc1nnc(N2CCN(C(C)C)CC2)c2cc(=O)n(C3CC3)cc12 [Example 211, (R)-6-cyclopropyl-4-((1-(3-(difluoromethyl)-2-methylphenyl)ethyl)amino)-1-(4-isopropylpiperazin-1-yl)pyrido[3,4-d]pyridazin-7(6H)-one]	5.2
C[C@@H](Nc1nnc(N2CCC3(CC3)C2)c2cc(=O)n(C3(C)CC3)cc12)c1cccc(C(F)F)c1F [Example 187, (R)-4-((1-(3-(difluoromethyl)-2-fluorophenyl)ethyl)amino)-6-(1-methylcyclopropyl)-1-(5-azaspiro[2.4]heptan-5-yl)pyrido[3,4-d]pyridazin-7(6H)-one]	4.8
Cc1cc(N)cc([C@@H](C)Nc2nnc(N3CCN(C4CC4)CC3)c3cc(=O)n(C4(C)CC4)cc23)c1F [Example 162, (R)-4-((1-(5-amino-2-fluoro-3-methylphenyl)ethyl)amino)-1-(4-cyclopropylpiperazin-1-yl)-6-(1-methylcyclopropyl) pyrido[3,4-d]pyridazin-7(6H)-one]	6.7
C[C@@H](Nc1nnc(N2CCC3(CCOCC3)C2)c2cc(=O)n(C3(C)CC3)cc12)c1cccc(C(F)F)c1F [Example 200, (R)-4-((1-(3-(difluoromethyl)-2-fluorophenyl)ethyl)amino)-6-(1-methylcyclopropyl)-1-(8-oxa-2-azaspiro[4.5]decan-2-yl)pyrido[3,4-d]pyridazin-7(6H)-one]	4.2
Cc1c(C#N)cccc1[C@@H](C)Nc1nnc(N2CCN(C)CC2)c2cc(=O)n(C3CC3)cc12 [Example 87, (R)-3-(1-((6-cyclopropyl-1-(4-methylpiperazin-1-yl)-7-oxo-6,7-dihydropyrido[3,4-d]pyridazin-4-yl)amino)ethyl)-2-methylbenzonitrile]	5.7
Cc1cc(N)cc([C@@H](C)Nc2nnc(N3CCN(C)CC3)c3cc(=O)n(C4(C)CC4)cc23)c1F [Example 152, (R)-4-((1-(5-amino-2-fluoro-3-methylphenyl)ethyl)amino)-6-(1-methylcyclopropyl)-1-(4-methylpiperazin-1-yl)pyrido[3,4-d]pyridazin-7(6H)-one]	4.2
C[C@@H](Nc1nnc(N2CCC3(CCC3)CC2)c2cc(=O)n(C3(C)CC3)cc12)c1cccc(C(F)F)c1F [Example 184, (R)-4-((1-(3-(difluoromethyl)-2-fluorophenyl)ethyl)amino)-6-(1-methylcyclopropyl)-1-(7-azaspiro[3.5]nonan-7-yl)pyrido[3,4-d]pyridazin-7(6H)-one]	40.2
CC(C)n1cc2c(N[C@H](C)c3cccc(C(F)F)c3F)nnc(N3CCN(C)CC3)c2cc1=O [Example 114, (R)-4-((1-(3-(difluoromethyl)-2-fluorophenyl)ethyl)amino)-6-isopropyl-1-(4-methylpiperazin-1-yl)pyrido[3,4-d]pyridazin-7(6H)-one formate]	6
CCN1CCN(c2nnc(N[C@H](C)c3cccc(C#N)c3C)c3cn(C4CC4)c(=O)cc23)CC1 [Example 224, (R)-3-(1-((6-cyclopropyl-1-(4-ethylpiperazin-1-yl)-7-oxo-6,7-dihydropyrido[3,4-d]pyridazin-4-yl)amino)ethyl)-2-methylbenzonitrile]	8.4
Cc1c([C@@H](C)Nc2nnc(N3CC(F)(F)C3)c3cc(=O)n(C4CC4)cc23)cccc1C(F)(F)F [Example 54, (R)-6-cyclopropyl-1-(3,3-difluoroazetidin-1-yl)-4-((1-(2-methyl-3-(trifluoromethyl)phenyl)ethyl)amino)pyr ido[3,4-d]pyridazin-7(6H)-one]	50.3
C[C@@H](Nc1nnc(N2CCC(CO)C2)c2cc(=O)n(C3(C)CC3)cc12)c1cccc(C(F)F)c1F (stereo partly drawn) [Example 128, 4-(((R)-1-(3-(difluoromethyl)-2-fluorophenyl)ethyl)amino)-1-(3-(hydroxymethyl)pyrrolidin-1-yl)-6-(1-methylcyclopropyl) pyrido[3,4-d]pyridazin-7(6H)-one]	4.2
Cc1c(C#N)cccc1[C@@H](C)Nc1nnc(N2CCC(F)(F)C2)c2cc(=O)n(C3(C)CC3)cc12 [Example 69, (R)-3-(1-((1-(3,3-difluoropyrrolidin-1-yl)-6-(1-methylcyclopropyl)-7-oxo-6,7-dihydropyrido[3,4-d]pyridazin-4-yl)amino)ethyl)-2-methylbenzonitrile]	34.2
C[C@@H](Nc1nnc(N2CC3CCC(C2)N3C)c2cc(=O)n(C3(C)CC3)cc12)c1cccc(C(F)F)c1F [Example 193]	4.3
C[C@@H](Nc1nnc(NC2CN3CCC2CC3)c2cc(=O)n(C3(C)CC3)cc12)c1cccc(C(F)F)c1F (stereo partly drawn) [Example 133, 4-(((R)-1-(3-(difluoromethyl)-2-fluorophenyl)ethyl)amino)-6-(1-methylcyclopropyl)-1-(quinuclidin-3-ylamino)pyrido[3,4-d]pyridazin-7(6H)-one]	6.5
CCN1CCN(c2nnc(N[C@H](C)c3cccc(C#N)c3C)c3cn(C)c(=O)cc23)CC1 [Example 145, (R)-3-(1-((1-(4-ethylpiperazin-1-yl)-6-methyl-7-oxo-6,7-dihydropyrido[3,4-d]pyridazin-4-yl)amino)ethyl)-2-methylbenzonitrile formate]	7.8
Cc1c(C#N)cccc1[C@@H](C)Nc1nnc(N2CCN(C)CC2)c2cc(=O)n(C3CCN(C)CC3)cc12 [Example 135, (R)-2-methyl-3-(1-((1-(4-methylpiperazin-1-yl)-6-(1-methylpiperidin-4-yl)-7-oxo-6,7-dihydropyrido[3,4-d]pyridazin-4-yl)amino)ethyl)benz onitrile formate]	14.1
Cc1c(C#N)cccc1[C@@H](C)Nc1nnc(N2CC[C@H](CO)C2)c2cc(=O)n(N3CC4CCCC4C3)cc12 (stereo partly drawn) [Example 166, 3-((1R)-1-((6-(hexahydrocyclopenta[c]pyrrol-2(1H)-yl)-1-((S)-3-(hydroxymethyl)pyrrolidin-1-yl)-7-oxo-6,7-dihydropyrido[3,4-d]pyridazin-4-yl)amino)ethyl)-2-methylbenzonitrile]	9.7
C[C@@H](Nc1nnc(N2CCC(F)(F)C2)c2cc(=O)n(C3(C)CC3)cc12)c1cccc(C(F)F)c1F [Example 26, (R)-4-((1-(3-(difluoromethyl)-2-fluorophenyl)ethyl)amino)-1-(3,3-difluoropyrrolidin-1-yl)-6-(1-methylcyclopropyl) pyrido[3,4-d]pyridazin-7(6H)-one]	18.8
Cc1c([C@@H](C)Nc2nnc(N3CC(F)(F)C3)c3cc(=O)n(C4(C)CC4)cc23)cccc1C(F)(F)F [Example 66, (R)-1-(3,3-difluoroazetidin-1-yl)-4-((1-(2-methyl-3-(trifluoromethyl)phenyl)ethyl)amino)-6-(1-methylcyclopropyl) pyrido[3,4-d]pyridazin-7(6H)-one]	30.9
Cc1cc(N)cc([C@@H](C)Nc2nnc(N3CCN(C4CCCC4)CC3)c3cc(=O)n(C4CC4)cc23)c1F [Example 148, (R)-4-((1-(5-amino-2-fluoro-3-methylphenyl)ethyl)amino)-1-(4-cyclopentylpiperazin-1-yl)-6-cyclopropylpyrido[3 ,4-d]pyridazin-7(6H)-one]	6.5
C[C@@H](Nc1nnc(NC(C2CC2)C2CC2)c2cc(=O)n(C3(C)CC3)cc12)c1cccc(C(F)F)c1F [Example 129, (R)-1-((dicyclopropylmethyl)amino)-4-((1-(3-(difluoromethyl)-2-fluorophenyl)ethyl)amino)-6-(1-methylcyclopropyl) pyrido[3,4-d]pyridazin-7(6H)-one]	6.1
C[C@@H](Nc1nnc(NC2COC2)c2cc(=O)n(C3(C)CC3)cc12)c1cccc(C(F)F)c1F [Example 115, (R)-4-((1-(3-(difluoromethyl)-2-fluorophenyl)ethyl)amino)-6-(1-methylcyclopropyl)-1-(oxetan-3-ylamino)pyrido[3,4-d]pyridazin-7(6H)-one]	4.1
C[C@@H](Nc1nnc(N2CCS(=O)(=O)CC2)c2cc(=O)n(C3(C)CC3)cc12)c1cccc(C(F)F)c1F [Example 27, (R)-4-((1-(3-(difluoromethyl)-2-fluorophenyl)ethyl)amino)-1-(1,1-dioxidothiomorpholino)-6-(1-methylcyclopropyl) pyrido[3,4-d]pyridazin-7(6H)-one]	16.5
